This is an account of results in article PMC8510344, “Bile-Acid-Appended Triazolyl Aryl Ketones: Design, Synthesis, In Vitro Anticancer Activity and Pharmacokinetics in Rats” (Molecules, 2021).

For orientation: viability means a read-out of living cells in per cent, often relative to untreated cells. As usually defined, the melting point is the temperature, or range, at which the solid turns liquid. Usually MRT stands for the average time that molecules of a dose stay in the body. The IC50 is the midpoint of a concentration-inhibition curve.

Several values for one entry are separate records, joined by “and”; a condition that tells them apart may be missing. Equal entries are not always repeated. Where two headings read alike, the source gives them in different places. A value given as a limit tells only on which side of the number the result lay.

The nature of data set [1]: MTT cytotoxicity assay, normal cell line HEK 293. The class given is cell-based. As to conditions: human, HEK 293 cells, HEK 293 normal cells, 48 h exposure. As to the method: (§1) The cytotoxicity activity of all the conjugates (6aa–6df) was evaluated in vitro by MTT assay against two different breast cancer cell lines 4T1 (murine) and MCF-7 (human) and HEK 293 (human) as normal cell line. DTX was used as positive control. Cells were grown in DMEM supplemented with 10% FBS and 1% antibiotic solution and incubated at 5% CO2 and 37 °C for 24 h. The stock solutions of all the conjugates were prepared in DMSO and diluted for further use. Briefly, 5 × 10^3 cells/well were seeded in 96-well cell culture plates and allowed to adhere for 24 h. Cell inhibition (%) was determined after 48 h exposure to the compounds at 1–25 μM concentration. After 48 h, MTT assay was performed and the yellow tetrazolium salt (MTT) was reduced in metabolically active cells to form insoluble purple formazan crystals, which were solubilized by the addition of DMSO. The optical density (OD) was recorded at 560 nm and 630 nm as reference wavelength. Percentage cell inhibition was determined by comparison with untreated cells.
A general note: Formazan colour is commonly taken as a measure of viable cells.

For data set [2], the system named is MCF-7 (human breast adenocarcinoma) cells. Put plainly: MTT cytotoxicity assay, MCF-7. The class given is cell-based. The conditions noted are these: Homo sapiens, MCF7, 10 µM, 48 h exposure, read-out: % Cell Viability at 10 µM MCF-7. As to the method: as §1
The test system of data set [3] is 4T1 (mouse mammary carcinoma) cells. Put plainly: MTT cytotoxicity assay, 4T1. The conditions noted are these: Mus musculus, 10 µM, 48 h exposure, read-out: % Cell Viability at 10 µM 4T1. It is filed as cell-based. As to the method:
as §1

The subject of the next data set is MCF-7 cells. In words: Annexin V/PI apoptosis assay by flow cytometry, MCF-7. It is filed as cell-based, human. As to conditions: 6af at 2.61 µM, 6cf at 5.71 µM (respective IC50), 48 h. As to the method: (§2) The extent of apoptosis induced by compounds 6af and 6cf in MCF-7 and 4T1 cells was quantified by flow cytometry according to the manufacturer’s protocol. Briefly, cells were seeded in a 6-well plate at a cell density of 1 × 10^6 cells/well. After 24 h, the media was discarded and cells were treated with fresh media containing compounds 6af and 6cf at their respective IC50 concentrations for 48 h. After treatment, cells were trypsinized, harvested in PBS and collected by centrifugation for 5 min at 2000 rpm. Cells were then resuspended in 1X binding buffer and stained with FITC-labeled Annexin V Alexa Fluor 488 (5 μL) and propidium iodide (10 μL). Cells were analyzed using flow cytometer (Beckman Coulter), and data were analyzed with CytExpert software.

Data set [4] in a line: Pharmacokinetic study in Wistar rats, i.v. bolus. It is filed as in vivo. As to conditions: rat plasma, 10 mg/kg i.v. bolus. On the procedure:
Wistar rats (male; 8–10 weeks, 200–240 g) were procured from Central Animal Facility, BITS Pilani (Pilani, India). Animal experiment protocol was approved by Institutional Animal Ethics Committee (IAEC/RES/24/03), BITS Pilani, Pilani, and all experiments were conducted as per CPCSEA guidelines. Rats were housed in well-ventilated cages at standard laboratory conditions with regular light/dark cycles for 12 h and fed with standard normal diet ab libitum.
The pharmacokinetic study of 6cf was performed on Wistar rats. 6cf solution (prepared in normal saline with 5% w/v tween 80) was administered intravenously at the dose of 10 mg/kg with maximum dosing volume of 300 µL to each rat without fasting (n = 4). After i.v. dosing, blood samples were collected for each preset time point at 10, 20, 30, 50 min, 1.5, 2, 4, 6, 8, 12 and 24 h. 6cf plasma concentration–time profile was plotted and analyzed by non-compartmental model approach using Phoenix 2.1 WinNonlin (Pharsight Corporation, USA) to determine t1/2, elimination half-life; C0, drug concentration in plasma at t = 0; AUC0-t, area under curve from zero to the last time point; AUC0–∞, area under curve from zero to infinity; and MRT, mean residence time.
A simple liquid–liquid extraction (LLE) method was used for extraction of 6cf from the rat plasma. A 200 µL aliquot of plasma sample containing 6cf was taken in 5 mL glass tube, followed by the addition of 100 µL of internal standard (I.S.) (clobetasol, 2 µg/mL) solution. Samples were vortexed for 1 min, and then 2 mL of ethyl acetate was added as extracting solvent. The samples were vortexed for 5 min and centrifuged at 5000 rpm for 15 min at 4 °C. The organic layer was collected and evaporated to dryness at 40 ± 0.5 °C. The residue was reconstituted with 250 µL of mobile phase and vortexed for 1 min. Finally, 150 µL of sample was injected into HPLC for quantification.
A Thermo Fisher Rapid Separation (RS) UHPLC System (Ultimate 3000) equipped with a pump (LPG-3400SD), Diode Array Detector (DAD) (DAD-3000) and autosampler (ACC-3000T) with 250 µL injection loop was used for purity analysis. The UHPLC system was equilibrated for approximately 40 min before beginning the sample analysis. Column temperature was 35° throughout the analysis. 6cf and I.S. were separated on Intersil® ODS (C18) column (250 × 4.6 mm, 5µm) with a mobile phase consisting of acetonitrile:water (60:40 % v/v) run in isocratic mode at a flow rate of 1 mL/min, detection wavelength 259 nm and injection volume of 150 µL. […] Control of hardware and data handling was performed using Chromeleon software version 7.2 SR4.

Another data set relates to 4T1 cells. In words: Annexin V/PI apoptosis assay by flow cytometry, 4T1. It is filed as cell-based, mouse. The conditions noted are these: 6af at 12.84 µM, 6cf at 8.76 µM (respective IC50), 48 h. On the procedure:
as §2
On the technique in general: Flow cytometry measures light scatter and fluorescence of single cells or particles in a stream.

In data set [5] the test system is Human prostate cancer cell line (PC-3). Also on record: method as in PMID 23884119, PMID 25476168, PMID 30220830, PMID 23584541, PMID 28158265. The conditions noted are these: literature example of Figure 1; cited from earlier work.
Data set [6] concerns leukemia cell line (Jurkat). Further details: method as in doi:10.1039/c3nj00513e. The conditions noted are these: cited from earlier work.
The test system of data set [7] is leukemia cell line (K562). As to conditions: cited from earlier work.
Data set [8] deals with Lymphoblastic leukemia cell line (CCRF-CEM). Also on record: method as in PMID 23291595. The conditions noted are these: cited from earlier work.

Compound `C[C@H](CCC(=O)NCc1cn(CC(=O)c2ccc(Br)cc2)nn1)C1CCC2C3C(C[C@H](O)[C@@]21C)[C@@]1(C)CC[C@@H](O)CC1C[C@H]3O` (stereo partly drawn) [6cf, (4R)-N-((1-(2-(4-Bromophenyl)-2-oxoethyl)-1H-1,2,3-triazol-4-yl)methyl)-4-((3R,7R,10S,12S,13R)-3,7,12-trihydroxy-10,13-dimethylhexadecahydro-1H-cyclopenta[a]phenanthren-17-yl)pentanamide] registered a melting point of 144 to 145 °C. In [1], the viability at 48 h, 10 µM is over 86%. Further, the viability at 10 µM in [2] came out at 37.5%. Also, the viability at 10 µM in [3] turned out to be 49.3%. In addition, in the data set on MCF-7 cells, the “apoptosis (total) in MCF-7 cells” value stood at 46.09%. The C0 in [4] (male, Wistar, iv, conversion of 1752.69 ng/mL, read-out: initial concentration converted to molar) was about 2560 nM. Also, in data set [4] (male, Wistar, iv, mean ± SEM, read-out: Area Under the Curve (0 to 12 h), AUC0–last), the AUC(0-t) came out at 2000 ± 87.4 ng·h/mL. Besides, the AUC(0-inf) in [4] (male, Wistar, iv, mean ± SEM, read-out: Area Under the Curve (0 to infinity), AUC0–∞) was determined as 2690 ± 113 ng·h/mL. Also, the k el in data set [4] (male, Wistar, iv, mean ± SEM, read-out: Elimination Rate Constant, Ke (converted)) is 3.61e-05 s⁻¹. For the same compound, the half-life in data set [4] (male, Wistar, iv, mean ± SEM, read-out: Half-Life, t1/2 (converted)) is 5.63 ± 0.539 h. In addition, the C0 in [4] (male, Wistar, iv, mean ± SEM, read-out: Initial Concentration, C0) was 1750 ± 66.5 ng/mL. Further, the MRT in data set [4] (male, Wistar, iv, mean ± SEM, read-out: Mean Residence Time, MRT) was determined as 8.47 ± 0.96 h. Besides, in [4] (mean ± SEM), the “Area Under the First Moment Curve (0 to 12 h), AUMC0–last” value came out at 8155.94 ± 311.78 ng·h/mL and the “Area Under the First Moment Curve (0 to infinity), AUMC0–∞” value amounted to 22276.39 ± 2023.334 ng·h/mL. The “total apoptosis in 4T1 cells” value in the data set on 4T1 cells was determined as 19.56%.
With `CC(=O)c1ccc(OCc2cn(CC(=O)C3CCC4C5CC=C6CC(O)CCC6(C)C5CCC34C)nn2)cc1` (centres unmarked) [I], in data set [5], the IC50 is 0.03 µM.
In the case of `COC(=O)CCC(C)C1CCC2C3C(O)CC4CC(n5cc(CCCC#Cc6nc7c(N)ncnc7n6C6CC(O)C(CO)O6)nn5)CCC4(C)C3CCC12C` (centres unmarked) [VII], the IC50 in data set [6] was 10.5 ± 2.64 µM; in [7] it was 8.51 µM and 8.5 µM.
Take `CC(CCn1cc(CCCCC#Cc2nc3c(N)ncnc3n2C2CC(O)C(CO)O2)nn1)C1CCC2C3C(O)CC4CC(O)CCC4(C)C3CCC12C` (centres unmarked) [VI]: the IC50 in data set [7] was 16.2 ± 2.2 µM.
Regarding `CC(CCC(=O)OCc1cn(Cc2cccc(Cn3cc(COC(=O)CCC(C)C4CCC5C6C(O)CC7CC(O)CCC7(C)C6CC(O)C45C)nn3)n2)nn1)C1CCC2C3C(O)CC4CC(O)CCC4(C)C3CC(O)C12C` (centres unmarked) [V], in data set [8], the IC50 is 3.98 µM.
